Where two headings read alike, the source gives them in different places.
Columns and labels:
PIM-1 = molecular target: T1, PIM-1 (Homo sapiens, UniProt P11309); test: PIM-1 biochemical assay (ADP Hunter)
T1 construct: histidine tag (C); made in house
From the text: The biochemical assay to measure PIM-1 activity relies on the ADP Hunter assay kit (DiscoveRx Corp., Cat. #90-0077), that determines the amount of ADP as direct product of the kinase enzyme activity.
The enzyme has been expressed and purified in-house as a recombinant human protein with a C-terminal histidine tag. The protein is active and stable.
Assay conditions were as indicated by the kit manufacturers with the following adaptations for the kinase activity step: • Kinase assay buffer and assay volume stay as recommended (15 mM HEPES, pH 7.4, 20 mM NaCl, 1 mM EGTA, 0.02% Tween 20, 10 mM MgCl2 and 0.1 mg/ml bovine γ-globulins/75 μl assay volume) • Incubation time and temperature: 60 min at 30° C. • PIM-1 concentration: 50 pg/μl • ATP concentration: 100 μM • PIM-1 substrate peptide: PIMtide ([…]) (SEQIDNO. 1) • Peptide concentration: 60 μM • Positive control for kinase activity inhibition: 1-10 μM Staurosporine • DMSO concentration have to stay below 2% during the kinase reaction
Assays were performed in either 96 or 384-well plates. The final outcome of the coupled reactions provided by the kit is the release of the fluorescent product Resorufin and has been measured with a multilabel HTS counter VICTOR V (PerkinElmer) using an excitation filter at 544 nm and an emission filter at 580 nm.

mTOR = molecular target: T2, mTOR (Homo sapiens, UniProt P42345); test: mTOR assay (LanthaScreen kinase activity assay); type: biochemical
T2 construct: purchased Invitrogen PV4754
Method: The enzymatic mTOR activity was measured using a LanthaScreen™ kinase activity assay (Invitrogen). The enzyme was purchased from Invitrogen (PV4754), as well as the GFP-labeled substrate (4EBP1-GFP; PV4759) and the Tb-anti-p4EBP1(pThr46) antibody (PV4757). The assay was performed in 50 mM HEPES buffer, pH 7.5, containing 1.5 mM MnCl2, 10 mM MgCl2, 1 mM EGTA, 2.5 mM DTT and 0.01% Tween-20. The concentration of the assay components were the following: 0.24 nM mTOR kinase, 400 nM 4EBP1-GFP, […] and serial dilutions of the compound (inhibitor) to be evaluated. After 1 h incubation at room temperature, 20 mM EDTA was used to stop the reaction and terbium-labeled antibody (4 nM) added to detect phosphorylated product. The antibody associates with the phosphorylated product resulting in an increased TR-FRET value. The TR-FRET value (a dimensionless number) was calculated as the ratio of the acceptor signal (GFP, emission at 520 nm) to the donor signal (terbium, emission at 495 nm). Values were plotted against the inhibitor concentration and fitted to a sigmoid dose-response curve using GraphPad software.

PI3K (p110α/p85α) = molecular target: T3, PI3K (p110α/p85α) (Homo sapiens, UniProt P42336); test: PI3K activity assay (ADP Hunter Plus); type: biochemical
T3 construct: purchased Carna Biosciences 07CBS-0402A
Method: The kinase activity was measured by using the commercial ADP Hunter™ Plus assay available from DiscoveRx (#33-016), which is a homogeneous assay to measure the accumulation of ADP, a universal product of kinase activity. […] Reaction was carried out for 1 hour at 25° C. Reagent A and B were sequentially added to the wells and plates were incubated for 30 min at 37° C. Fluorescence counts were read in a Victor instrument (Perkin Elmer) with the recommended settings (544 and 580 nm as excitation and emission wavelengths, respectively). Values were normalized against the control activity included for each enzyme (i.e., 100% PI3 kinase activity, without compound). These values were plotted against the inhibitor concentration and were fit to a sigmoid dose-response curve by using the Graphad software.

[1] = PIM1, read-out: PIM-1 activity, IC50 (semi-quantitative class)
[2] = read-out: mTOR activity, IC50 (semi-quantitative class)
[3] = read-out: PI3K alpha activity, IC50 (semi-quantitative class)
[4] = PIM1, read-out: PIM-1 actual IC50 (in parentheses)
[5] = read-out: mTOR actual IC50 (in parentheses)
[6] = read-out: PI3K alpha actual IC50 (in parentheses)
[7] = read-out: PIM-1 activity (semi-quantitative IC50)
[8] = read-out: mTOR activity (semi-quantitative IC50)
[9] = read-out: PI3K alpha activity (semi-quantitative IC50)
[10] = read-out: PIM-1 IC50 (in parentheses)
[11] = read-out: mTOR IC50 (in parentheses)
[12] = read-out: PI3K alpha IC50 (in parentheses)

T3 sequence (P42336 whole entry): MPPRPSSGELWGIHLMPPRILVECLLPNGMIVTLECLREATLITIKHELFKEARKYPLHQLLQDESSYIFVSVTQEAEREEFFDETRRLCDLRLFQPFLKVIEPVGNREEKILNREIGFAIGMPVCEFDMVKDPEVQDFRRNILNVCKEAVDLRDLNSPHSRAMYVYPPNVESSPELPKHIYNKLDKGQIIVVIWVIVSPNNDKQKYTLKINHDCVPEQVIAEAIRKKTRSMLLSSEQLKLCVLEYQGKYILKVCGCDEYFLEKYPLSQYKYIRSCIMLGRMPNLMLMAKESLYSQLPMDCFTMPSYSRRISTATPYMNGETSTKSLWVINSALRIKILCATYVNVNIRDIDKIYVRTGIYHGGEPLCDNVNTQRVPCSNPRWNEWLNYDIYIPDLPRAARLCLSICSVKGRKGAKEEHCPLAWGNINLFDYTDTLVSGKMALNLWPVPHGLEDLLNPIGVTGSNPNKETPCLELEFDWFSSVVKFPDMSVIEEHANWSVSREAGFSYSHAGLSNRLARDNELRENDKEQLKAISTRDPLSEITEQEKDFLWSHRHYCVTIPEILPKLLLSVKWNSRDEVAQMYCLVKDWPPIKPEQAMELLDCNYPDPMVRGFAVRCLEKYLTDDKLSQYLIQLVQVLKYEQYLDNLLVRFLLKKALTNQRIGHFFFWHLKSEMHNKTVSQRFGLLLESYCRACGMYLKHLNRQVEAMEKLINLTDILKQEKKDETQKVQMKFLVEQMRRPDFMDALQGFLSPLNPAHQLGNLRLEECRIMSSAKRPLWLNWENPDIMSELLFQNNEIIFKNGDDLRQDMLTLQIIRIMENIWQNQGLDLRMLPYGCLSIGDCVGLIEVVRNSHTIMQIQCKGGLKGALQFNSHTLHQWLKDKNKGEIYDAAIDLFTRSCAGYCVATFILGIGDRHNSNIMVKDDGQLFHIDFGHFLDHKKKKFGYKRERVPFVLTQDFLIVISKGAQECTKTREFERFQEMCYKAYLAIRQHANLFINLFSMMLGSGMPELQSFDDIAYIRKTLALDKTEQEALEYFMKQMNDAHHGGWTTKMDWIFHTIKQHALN
T3 sequence (P27986 whole entry partner): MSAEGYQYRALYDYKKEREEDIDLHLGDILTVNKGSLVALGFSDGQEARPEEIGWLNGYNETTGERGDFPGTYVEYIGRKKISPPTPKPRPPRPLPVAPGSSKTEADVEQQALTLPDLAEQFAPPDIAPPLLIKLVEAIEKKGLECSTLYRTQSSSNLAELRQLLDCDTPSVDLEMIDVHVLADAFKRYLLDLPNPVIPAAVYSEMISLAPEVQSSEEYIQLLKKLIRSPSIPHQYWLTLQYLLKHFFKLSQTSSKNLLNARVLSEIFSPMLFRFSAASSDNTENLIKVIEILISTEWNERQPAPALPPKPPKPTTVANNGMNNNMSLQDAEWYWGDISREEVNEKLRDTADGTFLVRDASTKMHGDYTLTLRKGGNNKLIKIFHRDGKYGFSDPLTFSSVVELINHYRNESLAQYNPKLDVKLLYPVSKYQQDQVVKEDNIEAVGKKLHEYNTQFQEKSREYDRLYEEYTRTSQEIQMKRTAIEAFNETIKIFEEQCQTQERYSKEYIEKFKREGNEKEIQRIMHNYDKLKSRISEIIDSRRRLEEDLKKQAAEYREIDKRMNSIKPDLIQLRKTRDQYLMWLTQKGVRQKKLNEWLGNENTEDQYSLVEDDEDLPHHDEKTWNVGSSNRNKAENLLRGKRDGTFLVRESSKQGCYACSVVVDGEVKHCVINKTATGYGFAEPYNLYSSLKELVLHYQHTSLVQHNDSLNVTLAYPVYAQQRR
T1 sequence (P11309 whole entry): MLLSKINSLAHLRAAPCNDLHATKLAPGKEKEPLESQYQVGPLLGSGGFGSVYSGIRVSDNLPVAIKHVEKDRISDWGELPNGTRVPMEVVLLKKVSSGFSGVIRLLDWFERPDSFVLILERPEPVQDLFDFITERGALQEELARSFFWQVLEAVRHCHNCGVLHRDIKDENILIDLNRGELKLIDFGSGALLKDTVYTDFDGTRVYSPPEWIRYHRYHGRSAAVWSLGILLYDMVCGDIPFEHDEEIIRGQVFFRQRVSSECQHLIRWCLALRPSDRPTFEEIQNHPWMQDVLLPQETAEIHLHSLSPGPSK
T2 sequence (P42345 1360-2549 limits assumed): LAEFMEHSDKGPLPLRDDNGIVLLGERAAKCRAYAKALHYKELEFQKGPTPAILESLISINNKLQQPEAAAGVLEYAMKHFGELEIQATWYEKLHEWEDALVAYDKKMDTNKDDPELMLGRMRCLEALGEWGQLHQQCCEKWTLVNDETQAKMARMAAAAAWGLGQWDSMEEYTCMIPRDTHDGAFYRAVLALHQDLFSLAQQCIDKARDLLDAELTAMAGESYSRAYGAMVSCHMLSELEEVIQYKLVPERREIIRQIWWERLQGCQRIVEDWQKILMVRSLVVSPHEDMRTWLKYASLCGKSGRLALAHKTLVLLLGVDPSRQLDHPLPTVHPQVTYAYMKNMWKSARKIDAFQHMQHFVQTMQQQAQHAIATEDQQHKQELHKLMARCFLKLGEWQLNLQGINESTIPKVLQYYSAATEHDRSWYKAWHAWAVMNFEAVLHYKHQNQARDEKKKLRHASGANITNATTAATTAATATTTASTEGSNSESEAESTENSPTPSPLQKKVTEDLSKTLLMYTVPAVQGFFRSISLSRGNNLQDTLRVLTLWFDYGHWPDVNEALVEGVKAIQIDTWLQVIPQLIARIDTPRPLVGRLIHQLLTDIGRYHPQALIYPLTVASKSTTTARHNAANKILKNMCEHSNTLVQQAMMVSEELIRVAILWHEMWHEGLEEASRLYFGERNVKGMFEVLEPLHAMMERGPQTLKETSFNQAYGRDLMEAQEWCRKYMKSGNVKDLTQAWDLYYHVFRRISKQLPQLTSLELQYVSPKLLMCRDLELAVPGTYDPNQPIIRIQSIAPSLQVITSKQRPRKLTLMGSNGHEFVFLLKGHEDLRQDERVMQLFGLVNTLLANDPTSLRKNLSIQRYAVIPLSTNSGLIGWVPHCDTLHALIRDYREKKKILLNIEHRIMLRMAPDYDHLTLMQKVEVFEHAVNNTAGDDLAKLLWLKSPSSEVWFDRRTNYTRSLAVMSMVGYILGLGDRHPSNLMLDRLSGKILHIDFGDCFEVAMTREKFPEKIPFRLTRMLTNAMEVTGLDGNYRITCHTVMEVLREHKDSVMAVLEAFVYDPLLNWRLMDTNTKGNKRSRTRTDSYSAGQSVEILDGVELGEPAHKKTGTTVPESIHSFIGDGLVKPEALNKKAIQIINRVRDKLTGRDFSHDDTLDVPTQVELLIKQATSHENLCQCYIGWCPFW

Row | Compound | IC50 (PIM-1; [1]) [nM] | IC50 (mTOR; [2]) [nM] | IC50 (PI3K (p110α/p85α); [3]) [nM] | IC50 (PIM-1; [7]) [nM] | IC50 (mTOR; [8]) [nM] | IC50 (PI3K (p110α/p85α); [9]) [nM] | other results
1 | CC(C)Oc1ncc2cc1NS(=O)(=O)c1cccc(c1)C(=O)NCCn1cc(cn1)-c1ncnc3c1SC2=C3 [compound 59] | > 1000 | > 1000 | > 1000 |  |  |  | 
2 | COc1ncc2cc1NS(=O)(=O)c1cccc(c1)C(=O)NCc1cncc(c1)-c1nc(C(C)C)nc3c1SC2=C3 [compound 60] | > 1000 | > 1000 | > 1000 |  |  |  | 
3 | COc1ncc2cc1NS(=O)(=O)c1cccc(c1)C(=O)NCCn1cc(cn1)-c1nc(C(C)C)nc3c1SC2=C3 [compound 61] | > 1000 | > 1000 | > 1000 |  |  |  | 
4 | COc1ncc2cc1NS(=O)(=O)c1cccc(c1)C(=O)NCc1cncc(c1)-c1ccnc3c1SC2=C3 [compound 62] | < 100 | > 1000 | 100 to 1000 |  |  |  | IC50 (PIM-1; [4]): 31 nM
5 | COc1ncc2cc1NS(=O)(=O)c1cccc(c1)C(=O)NC[C@H]1CN(CCO1)c1ncnc3c1SC2=C3 [compound 64] | 100 to 1000 | > 1000 | > 1000 |  |  |  | 
6 | COc1ncc2cc1NS(=O)(=O)c1cccc(c1)C(=O)NCc1cc(ccc1F)-c1ncnc3c1SC2=C3 [compound 65] | > 1000 | > 1000 | 100 to 1000 |  |  |  | 
7 | COc1ncc2cc1NS(=O)(=O)c1cccc(c1)C(=O)NC[C@@H]1CN(CCO1)c1ncnc3c1SC2=C3 [compound 66] | < 100 | > 1000 | 100 to 1000 |  |  |  | IC50 (PIM-1; [4]): 88 nM
8 | COc1ncc2cc1NS(=O)(=O)c1cc(c(F)cc1F)C(=O)NCc1cccc(c1)-c1cnn3ccc-2nc13 [compound 67] | > 1000 | < 100 | < 100 |  |  |  | IC50 (mTOR; [5]): 12 nM; IC50 (PI3K (p110α/p85α); [6]): 0.5 nM
9 | COc1ncc2cc1NS(=O)(=O)c1cccc(c1)C(=O)NCC1=CC=C(O1)c1ncnc3c1SC2=C3 [compound 69] | 100 to 1000 | > 1000 | 100 to 1000 |  |  |  | 
10 | COc1ncc2cc1NS(=O)(=O)c1cccc(c1)C(=O)NCCCNc1ncnc3c1SC2=C3 [compound 70] | 100 to 1000 | > 1000 | > 1000 |  |  |  | 
11 | COc1ncc2cc1NS(=O)(=O)c1cc(c(F)cc1F)C(=O)NCc1cncc(c1)-c1ccnc3ccc-2nc13 [compound 71] | > 1000 | < 100 | < 100 |  |  |  | IC50 (mTOR; [5]): 25 nM; IC50 (PI3K (p110α/p85α); [6]): 0.15 nM
12 | COc1ncc2cc1NS(=O)(=O)c1cccc(c1)C(=O)NCc1cc(F)cc(c1)-c1ncnc3c1SC2=C3 [compound 72] | 100 to 1000 | > 1000 | > 1000 |  |  |  | 
13 | COc1ncc2cc1NS(=O)(=O)c1cccc(c1)C(=O)NCC1=CC=C(S1)c1c(C#N)cnc3c1SC2=C3 [compound 73] | < 100 | > 1000 | > 1000 |  |  |  | IC50 (PIM-1; [4]): 45 nM
14 | COc1ncc2cc1NS(=O)(=O)c1cccc(c1)C(=O)NCc1csc(c1)-c1ncnc3c1SC2=C3 [compound 77] | < 100 | > 1000 | 100 to 1000 |  |  |  | IC50 (PIM-1; [4]): 17 nM
15 | COc1ncc2cc1NS(=O)(=O)c1cccc(c1)C(=O)NCC1=CC=C(S1)c1ccnc3[nH]c-2cc13 [compound 78] | 100 to 1000 | > 1000 | 100 to 1000 |  |  |  | 
16 | COc1ncc2cc1NS(=O)(=O)c1cccc(c1)C(=O)NCc1nc(cs1)-c1ncnc3c1SC2=C3 [compound 79] | > 1000 | > 1000 | 100 to 1000 |  |  |  | 
17 | COc1ncc2cc1NS(=O)(=O)c1cccc(c1)C(=O)NCC1=CC=C(S1)c1ccnc3c1SC2=C3 [compound 80] | < 100 | > 1000 | 100 to 1000 |  |  |  | IC50 (PIM-1; [4]): 15 nM

Row | Compound | IC50 (PIM-1; [1]) [nM] | IC50 (mTOR; [2]) [nM] | IC50 (PI3K (p110α/p85α); [3]) [nM] | IC50 (PIM-1; [7]) [nM] | IC50 (mTOR; [8]) [nM] | IC50 (PI3K (p110α/p85α); [9]) [nM] | other results
18 | COc1ncc2cc1NS(=O)(=O)c1ccc(F)c(c1)C(=O)NCC1=CC=C(S1)c1ncnc3c1SC2=C3 [compound 82] | < 100 | > 1000 | < 100 |  |  |  | IC50 (PIM-1; [4]): 13 nM; IC50 (PI3K (p110α/p85α); [6]): 57 nM
19 | COc1ncc2cc1NS(=O)(=O)c1cccc(c1)C(=O)NC[C@H]1CCCN(C1)c1ncnc3c1SC2=C3 [compound 83] | 100 to 1000 | > 1000 | > 1000 |  |  |  | 
20 | COc1ncc2cc1NS(=O)(=O)c1cccc(c1)C(=O)NC[C@@H]1CCCN(C1)c1ncnc3c1SC2=C3 [compound 84] | 100 to 1000 | > 1000 | > 1000 |  |  |  | 
21 | O=C1NCc2cccc(c2)-c2cnn3ccc(nc23)-c2cnc(O)c(c2)NS(=O)(=O)c2cccc1c2 [compound 85] |  |  |  | > 1000 | > 1000 | 100 to 1000 | 
22 | COc1ncc2cc1NS(=O)(=O)c1cccc(c1)C(=O)NC[C@@H]1CCN(C1)c1ncnc3c1SC2=C3 [compound 86] |  |  |  | 100 to 1000 | > 1000 | > 1000 | 
23 | COc1ncc2cc1NS(=O)(=O)c1cccc(c1)C(=O)NC[C@H]1CCN(C1)c1ncnc3c1SC2=C3 [compound 87] |  |  |  | 100 to 1000 | > 1000 | > 1000 | 
24 | COc1ncc2cc1NS(=O)(=O)c1cccc(c1)C(=O)NCC1=C(C)C=C(S1)c1ncnc3c1SC2=C3 [compound 88] |  |  |  | < 100 | > 1000 | 100 to 1000 | IC50 (PIM-1; [10]): 69 nM
25 | COc1ncc2cc1NS(=O)(=O)c1cccc(c1)C(=O)NCc1ccncc1-c1ncnc3c1SC2=C3 [compound 89] |  |  |  | > 1000 | > 1000 | > 1000 | 
26 | COc1ncc2cc1NS(=O)(=O)c1ccc(F)c(c1)C(=O)NCC1=CC=C(S1)c1ncnc3c1SC2=C3C [compound 90] |  |  |  | < 100 | < 100 | < 100 | IC50 (PIM-1; [10]): 27 nM; IC50 (mTOR; [11]): 56 nM; IC50 (PI3K (p110α/p85α); [12]): 1.8 nM
27 | COc1ncc2cc1NS(=O)(=O)c1cccc(c1)C(=O)NC[C@@H]1CN(CCO1)c1ncnc3c1SC2=C3C [compound 91] |  |  |  | < 100 | 100 to 1000 | < 100 | IC50 (PIM-1; [10]): 47 nM; IC50 (PI3K (p110α/p85α); [12]): 10 nM
28 | COc1ncc2cc1NS(=O)(=O)c1cccc(c1)C(=O)NCc1cc(F)cc(c1)-c1ncnc3c1SC2=C3C [compound 92] |  |  |  | > 1000 | > 1000 | < 100 | IC50 (PI3K (p110α/p85α); [12]): 15 nM
29 | COCCOc1ccc2cc1C(=O)NCC1=CC=C(S1)c1ncnc3c1SC(=C3)c1cnc(OC)c(c1)NS2(=O)=O [compound 93] |  |  |  | > 1000 | < 100 | 100 to 1000 | IC50 (mTOR; [11]): 32 nM
30 | COc1ncc2cc1NS(=O)(=O)c1cccc(c1)C(=O)NC[C@@H]1CCN(C1)c1ncnc3c1SC2=C3C [compound 94] |  |  |  | < 100 | > 1000 | < 100 | IC50 (PIM-1; [10]): 65 nM; IC50 (PI3K (p110α/p85α); [12]): 26 nM
31 | COCCOc1ccc2cc1C(=O)NCC1=CC=C(S1)c1ncnc3c1SC(=C3C)c1cnc(OC)c(c1)NS2(=O)=O [compound 95] |  |  |  | 100 to 1000 | > 1000 | < 100 | IC50 (PI3K (p110α/p85α); [12]): 20 nM
32 | COc1ccc2cc1C(=O)NCC1=CC=C(S1)c1ncnc3c1SC(=C3)c1cnc(OC)c(c1)NS2(=O)=O [compound 97] |  |  |  | < 100 | > 1000 | 100 to 1000 | IC50 (PIM-1; [10]): 62 nM
33 | COc1ncc2cc1NS(=O)(=O)c1ccc(Cl)c(c1)C(=O)NCC1=CC=C(S1)c1ncnc3c1SC2=C3 [compound 98] |  |  |  | < 100 | > 1000 | < 100 | IC50 (PIM-1; [10]): 13 nM; IC50 (PI3K (p110α/p85α); [12]): 37 nM
34 | COc1ncc2cc1NS(=O)(=O)c1cccc(c1)C(=O)NC[C@H]1CCN(C1)c1ncnc3c1SC2=C3C [compound 99] |  |  |  | < 100 | > 1000 | < 100 | IC50 (PIM-1; [10]): 53 nM; IC50 (PI3K (p110α/p85α); [12]): 43 nM
